# Test results published in PubChem BioAssay AID248 (DTP/NCI, 2004).
# Where “and” joins values, the source holds several entries; their conditions need not be identical. Equal values may be shown once. Inconclusive results and toxic doses are left out.
# Tested on: L1210 leukemia ip in BDF1 mice, survival T/C
# Assay: NCI In Vivo Anticancer Drug Screen. Data for tumor model L1210 Leukemia (intraperitoneal) in B6D2F1 (BDF1) mice
# Details: endpoint: mean survival time, higher = longer survival
# Method in brief: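 In this screen, tumor-bearing mice given compound are compared to those given vehicle, and their survival values are reported as a treated-to-control quotient.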
# [1] = dose: 100.0 mg/kg/injection, schedule: Q04DX002 (ip), vehicle: Klucel (hydroxypropylcellulose) (HPC)
# [2] = dose: 200.0 mg/kg/injection, schedule: Q04DX002 (ip), vehicle: Klucel (hydroxypropylcellulose) (HPC)
# [3] = dose: 400.0 mg/kg/injection, schedule: Q04DX002 (ip), vehicle: Klucel (hydroxypropylcellulose) (HPC)
# [4] = dose: 100.0 mg/kg/injection, schedule: Q01DX009 (ip), vehicle: saline with Tween-80
# [5] = dose: 200.0 mg/kg/injection, schedule: Q01DX009 (ip), vehicle: saline with Tween-80
# [6] = dose: 25.0 mg/kg/injection, schedule: Q01DX009 (ip), vehicle: saline with Tween-80
# [7] = dose: 200.0 mg/kg/injection, schedule: Q01DX001 (ip), vehicle: saline
# [8] = dose: 400.0 mg/kg/injection, schedule: Q01DX001 (ip), vehicle: saline
# [9] = dose: 100.0 mg/kg/injection, schedule: Q01DX009 (ip), vehicle: saline
# [10] = dose: 100.0 mg/kg/injection, schedule: Q04DX003 (ip), vehicle: saline
# [11] = dose: 200.0 mg/kg/injection, schedule: Q01DX009 (ip), vehicle: saline
# [12] = dose: 200.0 mg/kg/injection, schedule: Q04DX003 (ip), vehicle: saline
# [13] = dose: 400.0 mg/kg/injection, schedule: Q01DX009 (ip), vehicle: saline
# [14] = dose: 400.0 mg/kg/injection, schedule: Q04DX003 (ip), vehicle: saline
# [15] = dose: 100.0 mg/kg/injection, schedule: Q01DX001 (ip), vehicle: saline
# [16] = dose: 100.0 mg/kg/injection, schedule: Q01DX001 (ip), vehicle: Klucel (hydroxypropylcellulose) (HPC)
smiles,measurement,setting,value
CC1=C(O)c2ccccc2C(=O)C1=O,T/C,"dose: 50.0 mg/kg/injection, schedule: Q01DX Z (ip), vehicle: other",93 % of control
N=C(N)SC12CC3CC(CC(C3)C1)C2,T/C,"dose: 10.0 mg/kg/injection, schedule: Q04DX002 (ip), vehicle: Klucel (hydroxypropylcellulose) (HPC)",94 % of control
same,T/C,"dose: 20.0 mg/kg/injection, schedule: Q04DX002 (ip), vehicle: Klucel (hydroxypropylcellulose) (HPC)",87 % of control
same,T/C,"dose: 40.0 mg/kg/injection, schedule: Q04DX002 (ip), vehicle: Klucel (hydroxypropylcellulose) (HPC)",94 % of control
O=C(O)CCCOc1ccc(Cl)cc1,T/C,[1],96 % of control
same,T/C,[2],101 % of control
same,T/C,[3],104 % of control
CC(C)(C)OC(=O)NCCCCC(NC(=O)OCc1ccccc1)C(=O)Oc1ccc([N+](=O)[O-])cc1 (stereo not given),T/C,[4],88 % of control
same,T/C,[5],93 % of control
CCN(CC)c1ccc(N(C(C)=O)C(C)=O)cc1,T/C,"dose: 6.25 mg/kg/injection, schedule: Q01DX009 (ip), vehicle: saline with Tween-80",98 % of control
same,T/C,"dose: 12.5 mg/kg/injection, schedule: Q01DX009 (ip), vehicle: saline with Tween-80",96 % of control
same,T/C,[6],96 % of control
Cc1ccc(NC(N)=S)cc1C,T/C,[6],105 % of control
same,T/C,"dose: 50.0 mg/kg/injection, schedule: Q01DX009 (ip), vehicle: saline with Tween-80",90 % of control
same,T/C,[4],86 % of control
C[C@]12CCC(=O)C=C1CC[C@H]1[C@@H]3CC[C@](O)(C(=O)CO)[C@@]3(C)C[C@H](O)[C@@]12F,T/C,"dose: 50.0 mg/kg/injection, schedule: Q01DX001 (sc), vehicle: steriod suspending solution",103 % of control
same,T/C,"dose: 100.0 mg/kg/injection, schedule: Q01DX001 (sc), vehicle: steriod suspending solution",100 % of control
same,T/C,"dose: 200.0 mg/kg/injection, schedule: Q01DX001 (sc), vehicle: steriod suspending solution",105 % of control
same,T/C,"dose: 400.0 mg/kg/injection, schedule: Q01DX001 (sc), vehicle: steriod suspending solution",105 % of control
CCOc1cc(OCC)c(C=O)c(OCC)c1,T/C,"dose: 100.0 mg/kg/injection, schedule: Q01DX009 (ip), vehicle: other",96 % of control
same,T/C,[7],88 % of control
same,T/C,"dose: 200.0 mg/kg/injection, schedule: Q01DX009 (ip), vehicle: other",94 % of control
same,T/C,[8],102 % of control
same,T/C,"dose: 400.0 mg/kg/injection, schedule: Q01DX009 (ip), vehicle: other",97 % of control
Cc1ccc[n+](CCC(N)=O)c1,T/C,[9],92 % of control
same,T/C,[10],102 % of control
same,T/C,[11],93 % of control
same,T/C,[12],102 % of control
same,T/C,[13],97 % of control
same,T/C,[14],94 % of control
Cc1cccc2c1CCC(OC(=O)c1cc([N+](=O)[O-])cc([N+](=O)[O-])c1)C2 (stereo not given),T/C,[4],86 % of control
same,T/C,[5],169 % of control
same,T/C,"dose: 400.0 mg/kg/injection, schedule: Q01DX009 (ip), vehicle: saline with Tween-80",95 % of control
CN(CCO)CC(O)Cn1cnc2c1c(=O)n(C)c(=O)n2C (stereo not given) (tested in a mixture with another compound),T/C,[15],108 % of control
same,T/C,[7],112 % of control
same,T/C,[8],104 % of control
N=C(N)SC1c2cc(Cl)ccc2-c2c(Cl)cc(Cl)cc21 (stereo not given),T/C,"dose: 100.0 mg/kg/injection, schedule: Q01DX001 (ip), vehicle: carboxymethylcellulose (CMC)",94 % of control
same,T/C,"dose: 200.0 mg/kg/injection, schedule: Q01DX001 (ip), vehicle: carboxymethylcellulose (CMC)",92 % of control
CC(C)(/C=N/NC(N)=O)c1ccccc1,T/C,"dose: 50.0 mg/kg/injection, schedule: Q01DX001 (ip), vehicle: Klucel (hydroxypropylcellulose) (HPC)",96 % of control
same,T/C,[16],102 % of control
same,T/C,"dose: 200.0 mg/kg/injection, schedule: Q01DX001 (ip), vehicle: Klucel (hydroxypropylcellulose) (HPC)",96 % of control
Cc1cccc(C)c1NC(=O)Oc1cccc2ccccc12,T/C,[9],97 % of control
same,T/C,[10],93 % of control
same,T/C,[11],95 % of control
same,T/C,[12],98 % of control
same,T/C,[13],103 % of control
same,T/C,[14],100 % of control
O=C(CCCC(=O)N/N=C/c1ccccc1C(=O)O)N/N=C\c1ccccc1C(=O)O,T/C,"dose: 50.0 mg/kg/injection, schedule: Q01DX001 (ip), vehicle: saline",104 % of control
same,T/C,[15],102 % of control
same,T/C,[7],102 % of control
same,T/C,[8],98 % of control
COc1ccccc1/C=C(\S)C(=O)O,T/C,[15],103 % of control
same,T/C,[7],97 % of control
same,T/C,[8],97 % of control
CC(C)N=Cc1cc(Cl)ccc1O.CC(C)N=Cc1cc(Cl)ccc1O.[Co],T/C,"dose: 50.0 mg/kg/injection, schedule: Q04DX003 (ip), vehicle: saline",94 % of control
same,T/C,[10],102 % of control
same,T/C,[12],105 % of control
C1CN2CCN1CC2,T/C,"dose: 37.5 mg/kg/injection, schedule: Q01DX009 (ip), vehicle: Klucel (hydroxypropylcellulose) (HPC)",91 % of control
same,T/C,"dose: 75.0 mg/kg/injection, schedule: Q01DX009 (ip), vehicle: Klucel (hydroxypropylcellulose) (HPC)",91 % of control
same,T/C,"dose: 150.0 mg/kg/injection, schedule: Q01DX009 (ip), vehicle: Klucel (hydroxypropylcellulose) (HPC)",89 % of control
same,T/C,"dose: 300.0 mg/kg/injection, schedule: Q01DX009 (ip), vehicle: Klucel (hydroxypropylcellulose) (HPC)",94 % of control
O=C(/C=C\c1ccccc1)c1ccc(Cl)cc1,T/C,"dose: 100.0 mg/kg/injection, schedule: Q01DX009 (ip), vehicle: Klucel (hydroxypropylcellulose) (HPC)",97 % of control
same,T/C,"dose: 200.0 mg/kg/injection, schedule: Q01DX009 (ip), vehicle: Klucel (hydroxypropylcellulose) (HPC)",97 % of control
same,T/C,"dose: 400.0 mg/kg/injection, schedule: Q01DX009 (ip), vehicle: Klucel (hydroxypropylcellulose) (HPC)",100 % of control
COc1cccc(C=O)c1[N+](=O)[O-],T/C,[1],104 % of control
same,T/C,[2],108 % of control
same,T/C,[3],97 % of control
CCOC(=O)C1=CC=CC1=O,T/C,"dose: 100.0 mg/kg/injection, schedule: Q04DX003 (ip), vehicle: saline with Tween-80",102 % of control
same,T/C,"dose: 200.0 mg/kg/injection, schedule: Q04DX003 (ip), vehicle: saline with Tween-80",95 % of control
same,T/C,"dose: 400.0 mg/kg/injection, schedule: Q04DX003 (ip), vehicle: saline with Tween-80",91 % of control
CC(=O)Nc1cc(N(CCOS(C)(=O)=O)CCOS(C)(=O)=O)ccc1N=O,T/C,"dose: 0.05 mg/kg/injection, schedule: Q01DX015 (ip), vehicle: saline",114 % of control
same,T/C,"dose: 0.1 mg/kg/injection, schedule: Q01DX015 (ip), vehicle: saline",123 % of control
same,T/C,"dose: 0.2 mg/kg/injection, schedule: Q01DX015 (ip), vehicle: saline",114 % of control
same,T/C,"dose: 0.4 mg/kg/injection, schedule: Q01DX015 (ip), vehicle: saline",114 % of control
same,T/C,"dose: 1.0 mg/kg/injection, schedule: Q01DX015 (ip), vehicle: saline",121 % of control
same,T/C,"dose: 1.7 mg/kg/injection, schedule: Q01DX015 (ip), vehicle: saline",119 % of control
same,T/C,"dose: 7.5 mg/kg/injection, schedule: Q01DX001 (ip), vehicle: saline",113 % of control
same,T/C,"dose: 10.0 mg/kg/injection, schedule: Q01DX001 (ip), vehicle: saline",124 % of control
CCCCCCCCCC(N)C(=O)O (stereo not given),T/C,"dose: 50.0 mg/kg/injection, schedule: Q04DX002 (ip), vehicle: gum acacia",100 % of control
same,T/C,"dose: 100.0 mg/kg/injection, schedule: Q04DX002 (ip), vehicle: gum acacia",98 % of control
same,T/C,"dose: 200.0 mg/kg/injection, schedule: Q04DX002 (ip), vehicle: gum acacia",100 % of control
CCOC(=O)Nc1cc2c(c(N)n1)N=C(CN(C)c1ccc(Cl)cc1)CN2,T/C,[16],150 % of control and 165 % of control
same,T/C,"dose: 150.0 mg/kg/injection, schedule: Q01DX001 (ip), vehicle: Klucel (hydroxypropylcellulose) (HPC)",93 % of control
CN(C)c1ncnc2c1ncn2C1OC(CO)C(N(C)C)C1O (stereo not given),T/C,"dose: 100.0 mg/kg/injection, schedule: Q01DX005 (ip), vehicle: saline",103 % of control
same,T/C,"dose: 200.0 mg/kg/injection, schedule: Q01DX005 (ip), vehicle: saline",95 % of control
